What was measured:
[1] = biological target: T1, 3-oxoacyl-[acyl-carrier-protein] synthase 2 (Mycobacterium tuberculosis (strain ATCC 25618 / H37Rv), UniProt P9WQD7); assay: Inhibitory activity against KasB from Mycobacterium tuberculosis H37Rv
T1 sequence (P9WQD7 whole entry): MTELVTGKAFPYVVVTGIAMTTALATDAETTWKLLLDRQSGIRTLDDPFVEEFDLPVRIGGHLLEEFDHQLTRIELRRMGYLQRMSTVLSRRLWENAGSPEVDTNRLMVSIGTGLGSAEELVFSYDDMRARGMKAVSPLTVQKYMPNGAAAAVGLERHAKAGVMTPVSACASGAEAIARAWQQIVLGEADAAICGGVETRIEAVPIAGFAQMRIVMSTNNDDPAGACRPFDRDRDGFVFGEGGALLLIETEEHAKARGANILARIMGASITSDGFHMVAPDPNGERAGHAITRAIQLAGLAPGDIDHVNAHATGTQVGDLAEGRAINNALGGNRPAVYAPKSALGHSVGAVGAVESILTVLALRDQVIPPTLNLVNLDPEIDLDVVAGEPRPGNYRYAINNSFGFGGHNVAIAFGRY

[2] = biological target: T2, 3-oxoacyl-[acyl-carrier-protein] synthase 1 (Escherichia coli (strain K12), UniProt P0A953); assay: Inhibitory activity against FabB from Escherichia coli ANSI
T2 sequence (P0A953 whole entry): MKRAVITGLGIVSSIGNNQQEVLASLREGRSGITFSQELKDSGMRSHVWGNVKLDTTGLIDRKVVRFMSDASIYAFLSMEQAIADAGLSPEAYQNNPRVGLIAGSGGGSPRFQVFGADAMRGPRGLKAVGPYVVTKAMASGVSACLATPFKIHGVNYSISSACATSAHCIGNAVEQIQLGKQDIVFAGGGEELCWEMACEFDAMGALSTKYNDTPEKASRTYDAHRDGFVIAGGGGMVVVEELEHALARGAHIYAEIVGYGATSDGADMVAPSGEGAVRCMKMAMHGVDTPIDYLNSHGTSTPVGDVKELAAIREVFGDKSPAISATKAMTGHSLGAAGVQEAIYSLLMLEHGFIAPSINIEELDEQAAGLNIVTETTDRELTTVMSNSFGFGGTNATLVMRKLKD

[3] = biological target: T3, 3-oxoacyl-[acyl-carrier-protein] synthase 3 (Mycobacterium tuberculosis (strain ATCC 25618 / H37Rv), UniProt P9WNG3); assay: Inhibitory activity against FabH from Mycobacterium tuberculosis H37Rv
T3 sequence (P9WNG3 whole entry): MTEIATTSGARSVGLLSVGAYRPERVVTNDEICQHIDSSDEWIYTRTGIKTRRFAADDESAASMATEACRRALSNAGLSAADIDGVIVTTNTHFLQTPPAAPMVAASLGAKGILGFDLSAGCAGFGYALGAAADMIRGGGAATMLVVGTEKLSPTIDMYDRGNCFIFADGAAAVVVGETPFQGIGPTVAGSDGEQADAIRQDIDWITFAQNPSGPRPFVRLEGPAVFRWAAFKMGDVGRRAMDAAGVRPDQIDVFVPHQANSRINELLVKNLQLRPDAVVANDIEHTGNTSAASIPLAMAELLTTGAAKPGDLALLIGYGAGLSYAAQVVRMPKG

[4] = biological target: T4, 3-oxoacyl-[acyl-carrier-protein] synthase 3 (Escherichia coli, UniProt C3TDZ2); assay: Inhibitory activity against FabH from Escherichia coli ANSI
T4 sequence (C3TDZ2 whole entry): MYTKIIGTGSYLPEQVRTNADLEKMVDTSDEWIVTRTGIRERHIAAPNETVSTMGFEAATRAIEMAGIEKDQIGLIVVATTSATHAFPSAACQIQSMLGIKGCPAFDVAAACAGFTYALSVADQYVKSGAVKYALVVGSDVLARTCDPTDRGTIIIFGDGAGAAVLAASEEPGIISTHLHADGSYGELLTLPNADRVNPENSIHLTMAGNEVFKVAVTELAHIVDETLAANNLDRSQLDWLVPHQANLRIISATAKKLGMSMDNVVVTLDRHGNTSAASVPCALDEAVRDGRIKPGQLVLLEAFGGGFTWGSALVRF

COc1ccccc1CC1(C)SC(=O)C(C)C1=O (stereo not given) [3,5-dimethyl-4-hydroxy-5-(2-methoxybenzyl)-5H-thiophen-2-one]
IC50 [1]: > 1 mM | IC50 [2]: > 1 mM | IC50 [3]: > 0.1 mM | IC50 [4]: > 1 mM

CC1C(=O)SC(C)(Cc2ccccc2Cl)C1=O (stereo not given) [5-(2-chlorobenzyl)-3,5-dimethyl-4-hydroxy-5H-thiophen-2-one]
IC50 [1]: > 1 mM | IC50 [2]: > 1 mM | IC50 [3]: > 1 mM | IC50 [4]: > 1 mM

Cc1cc(C)c(CC2(C)SC(=O)C(C)C2=O)c(C)c1 (stereo not given) [3,5-dimethyl-4-hydroxy-5-(2,4,6-trimethylbenzyl)-5H-thiophen-2-one]
IC50 [1]: > 1 mM | IC50 [2]: > 1 mM | IC50 [3]: > 1 mM | IC50 [4]: > 1 mM

COc1ccc(CC2(C)SC(=O)C(C)C2=O)cc1 (stereo not given) [4-Hydroxy-5-(4-methoxy-benzyl)-3,5-dimethyl-5H-thiophen-2-one]
IC50 [1]: > 1 mM | IC50 [2]: > 1 mM | IC50 [3]: > 1 mM | IC50 [4]: > 1 mM

CCCCCCCC1(C)SC(=O)C(C)C1=O (stereo not given) [3,5-dimethyl-5-heptyl-4-hydroxy-5H-thiophen-2-one]
IC50 [1]: > 1 mM | IC50 [2]: > 1 mM | IC50 [3]: > 1 mM | IC50 [4]: > 1 mM

CC1C(=O)SC(C)(Cc2ccc([N+](=O)[O-])cc2)C1=O (stereo not given) [3,5-dimethyl-4-hydroxy-5-(4-nitrobenzyl)-5H-thiophen-2-one]
IC50 [1]: > 1 mM | IC50 [2]: > 1 mM | IC50 [3]: > 1 mM | IC50 [4]: > 1 mM

CC[C@H](C)CC1(C)SC(=O)C(C)C1=O (stereo partly drawn) [3,5-dimethyl-4-hydroxy-5-((S)2-methylbutyl)-5H-thiophen-2-one]
IC50 [4]: > 0.1 mM

CCC(C)C1(C)SC(=O)C(C)C1=O (stereo not given) [3,5-dimethyl-4-hydroxy-5-(1-methylpropyl)-5H-thiophen-2-one]
IC50 [3]: > 0.1 mM

C=CCCC1(C)SC(=O)C(C)C1=O (stereo not given) [5-(but-3-enyl)-3,5-dimethyl-4-hydroxy-5H-thiophen-2-one]
IC50 [1]: > 1 mM | IC50 [2]: > 1 mM | IC50 [3]: > 1 mM | IC50 [4]: > 1 mM

CCCCCCCCCCCCCC1(C)SC(=O)C(C)C1=O (stereo not given) [3,5-dimethyl-4-hydroxy-5-tridecyl-5H-thiophen-2-one]
IC50 [2]: > 0.1 mM | IC50 [3]: 0.08 mM | IC50 [4]: 0.1 mM

CC1C(=O)SC(C)(Cc2ccc(F)cc2)C1=O (stereo not given) [3,5-dimethyl-5-(4-fluorobenzyl)-4-hydroxy-5H-thiophen-2-one]
IC50 [1]: > 1 mM | IC50 [2]: > 1 mM | IC50 [3]: > 0.1 mM | IC50 [4]: > 1 mM

CC1C(=O)SC(C)(CCCc2ccccc2)C1=O (stereo not given) [3,5-dimethyl-4-hydroxy-5-(3-phenylpropyl)-5H-thiophen-2-one]
IC50 [1]: > 1 mM | IC50 [2]: > 1 mM | IC50 [3]: > 1 mM | IC50 [4]: > 1 mM

CC1C(=O)SC(C)(C(C)c2ccccc2)C1=O (stereo not given) [3,5-dimethyl-4-hydroxy-5-(1-phenylethyl)-5H-thiophen-2-one]
IC50 [1]: > 1 mM | IC50 [2]: > 1 mM | IC50 [3]: > 1 mM | IC50 [4]: > 1 mM

CC1C(=O)SC(C)(Cc2ccc(Cl)cc2)C1=O (stereo not given) [5-(4-chlorobenzyl)-3,5-dimethyl-4-hydroxy-5H-thiophen-2-one]
IC50 [1]: > 1 mM | IC50 [2]: > 1 mM | IC50 [3]: > 0.1 mM | IC50 [4]: > 1 mM

CC1C(=O)SC(C)(Cc2ccc(Cl)c(Cl)c2)C1=O (stereo not given) [5-(3,4-dichlorobenzyl)-3,5-dimethyl-4-hydroxy-5H-thiophen-2-one]
IC50 [3]: > 0.1 mM | IC50 [4]: > 0.1 mM

Cc1ccc(C)c(CC2(C)SC(=O)C(C)C2=O)c1 (stereo not given) [3,5-dimethyl-5-(2,5-dimethylbenzyl)-4-hydroxy-5H-thiophen-2-one]
IC50 [1]: > 1 mM | IC50 [2]: > 1 mM | IC50 [3]: > 1 mM | IC50 [4]: > 1 mM

Cc1cccc(CC2(C)SC(=O)C(C)C2=O)c1 (stereo not given) [3,5-dimethyl-4-hydroxy-5-(3-methylbenzyl)-5H-thiophen-2-one]
IC50 [1]: > 1 mM | IC50 [2]: > 1 mM | IC50 [3]: > 1 mM | IC50 [4]: > 1 mM

CC1C(=O)SC(C)(Cc2c(Cl)cccc2Cl)C1=O (stereo not given) [5-(2,6-dichlorobenzyl)-3,5-dimethyl-4-hydroxy-5H-thiophen-2-one]
IC50 [1]: > 1 mM | IC50 [2]: > 1 mM | IC50 [3]: > 1 mM | IC50 [4]: > 1 mM

CCCCCCCCCCC1(C)SC(=O)C(C)C1=O (stereo not given) [5-Decyl-4-hydroxy-3,5-dimethyl-5H-thiophen-2-one]
IC50 [3]: > 0.1 mM | IC50 [4]: 0.1 mM

CC1C(=O)SC(C)(Cc2cccc(C(F)(F)F)c2)C1=O (stereo not given) [3,5-dimethyl-4-hydroxy-5-(3-trifluoromethylbenzyl)-5H-thiophen-2-one]
IC50 [1]: > 1 mM | IC50 [2]: > 1 mM | IC50 [3]: > 1 mM | IC50 [4]: > 1 mM

CC1C(=O)SC(C)(Cc2ccc(C(F)(F)F)cc2)C1=O (stereo not given) [3,5-dimethyl-4-hydroxy-5-(4-trifluoromethylbenzyl)-5H-thiophen-2-one]
IC50 [3]: > 0.1 mM

CCCCCC(C)C1(C)SC(=O)C(C)C1=O (stereo not given) [3,5-dimethyl-4-hydroxy-5-(1-methylhexyl)-5H-thiophen-2-one]
IC50 [1]: > 1 mM | IC50 [2]: > 1 mM | IC50 [3]: > 1 mM | IC50 [4]: > 1 mM

CC1C(=O)SC(C)(C2CCCCC2)C1=O (stereo not given) [5-cyclohexyl-3,5-dimethyl-4-hydroxy-5H-thiophen-2-one]
IC50 [3]: > 0.1 mM

Cc1ccccc1CC1(C)SC(=O)C(C)C1=O (stereo not given) [3,5-dimethyl-4-hydroxy-5-(2-methylbenzyl)-5H-thiophen-2-one]
IC50 [1]: > 1 mM | IC50 [2]: > 1 mM | IC50 [3]: > 1 mM | IC50 [4]: > 1 mM

CC1C(=O)SC(C)(Cc2ccc3ccccc3c2)C1=O (stereo not given) [3,5-dimethyl-4-hydroxy-5-(naphthalen-2-ylmethyl)-5H-thiophen-2-one]
IC50 [1]: > 1 mM | IC50 [2]: > 1 mM | IC50 [3]: > 0.1 mM | IC50 [4]: > 1 mM

CCCCCCCCC1(C)SC(=O)C(C)C1=O (stereo not given) [4-Hydroxy-3,5-dimethyl-5-octyl-5H-thiophen-2-one]
IC50 [3]: > 0.1 mM | IC50 [4]: > 0.1 mM

CCCCCCCCCCCCCCC1(C)SC(=O)C(C)C1=O (stereo not given) [3,5-dimethyl-4-hydroxy-5-tetradecyl-5H-thiophen-2-one]
IC50 [2]: > 0.1 mM | IC50 [3]: 0.08 mM | IC50 [4]: 0.1 mM

CC/C=C/CC1(C)SC(=O)C(C)C1=O (stereo not given) [3,5-dimethyl-4-hydroxy-5-((E)-pent-2-enyl)-5H-thiophen-2-one]
IC50 [1]: > 1 mM | IC50 [2]: > 1 mM | IC50 [3]: > 1 mM | IC50 [4]: > 1 mM

C=CCCCCCCC1(C)SC(=O)C(C)C1=O (stereo not given) [3,5-dimethyl-4-hydroxy-5-oct-7-enyl-5H-thiophen-2-one]
IC50 [1]: > 1 mM | IC50 [2]: > 1 mM | IC50 [3]: > 1 mM | IC50 [4]: > 1 mM

CCCCCCCCCC1(C)SC(=O)C(C)C1=O (stereo not given) [3,5-dimethyl-4-hydroxy-5-nonyl-5H-thiophen-2-one]
IC50 [1]: > 1 mM | IC50 [2]: > 1 mM | IC50 [3]: > 0.1 mM | IC50 [4]: > 0.1 mM

CC1C(=O)SC(C)(CCc2ccccc2)C1=O (stereo not given) [3,5-dimethyl-4-hydroxy-5-phenethyl-5H-thiophen-2-one]
IC50 [1]: > 1 mM | IC50 [2]: > 1 mM | IC50 [3]: > 1 mM | IC50 [4]: > 1 mM

CC(C)=CCC/C(C)=C/CC1(C)SC(=O)C(C)C1=O (stereo not given) [5-((E)-3,7-Dimethyl-octa-2,6-dienyl)-4-hydroxy-3,5-dimethyl-5H-thiophen-2-one]
IC50 [4]: 0.1 mM

CC1C(=O)SC(C)(Cc2ccc(Cl)cc2Cl)C1=O (stereo not given) [5-(2,4-dichlorobenzyl)-3,5-dimethyl-4-hydroxy-5H-thiophen-2-one]
IC50 [3]: > 0.1 mM

CCCCCCCCCCCC1(C)SC(=O)C(C)C1=O (stereo not given) [3,5-dimethyl-4-hydroxy-5-undecyl-5H-thiophen-2-one]
IC50 [1]: > 1 mM | IC50 [2]: > 1 mM | IC50 [4]: > 0.1 mM

CC1C(=O)SC(C)(CC2CC2)C1=O (stereo not given) [5-cyclopropylmethyl-3,5-dimethyl-4-hydroxy-5H-thiophen-2-one]
IC50 [4]: > 0.1 mM

Reference: BindingDB's records for doi:10.1021/jm050825p (National Institute of Allergy and Infectious Diseases, 2006)
